What was measured:
Settings in all cases: Compound Concentration 10.0 uM, Hit No
[1] = biological target: Endonuclease 8-like 1 (Homo sapiens) (UniProt Q96FI4);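 note: fluorescence at 594 nm from quenched duplex DNA oligonucleotides released by NEIL1 cleavage and strand separation, reported as reduction of this enzyme activity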
Description: Inhibition of NEIL1 by quantifying inhibition of NEIL1-mediated cleavage and dissociation of quenched duplex DNA oligonucleotides, measured as fluorescence at 594 nm.

[2] = biological target: DNA-3-methyladenine glycosylase (Homo sapiens) (UniProt P29372);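 note: enzyme assay where MPG cuts a quenched duplex DNA oligonucleotide probe, paired with APE1 for strand incision and turnover, read as fluorescence at 594 nm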
Description: Inhibition of MPG by quantifying inhibition of MPG-mediated cleavage and dissociation of quenched duplex DNA oligonucleotides, measured as fluorescence at 594 nm. To generate a functional strand incision and increase turn-over this assay is coupled to APE1.

[3] = biological target: N-glycosylase/DNA lyase (Homo sapiens) (UniProt O15527);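 note: OGG1 cleavage of a quenched duplex DNA oligonucleotide, coupled to APE1 for strand incision, read as fluorescence at 594 nm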
Description: Inhibition of OGG1 by quantifying inhibition of OGG1-mediated cleavage and dissociation of quenched duplex DNA oligonucleotides, measured as fluorescence at 594 nm. To generate a functional strand incision and increase turn-over this assay is coupled to APE1.

[4] = biological target: Uracil-DNA glycosylase (Homo sapiens) (UniProt P13051);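 note: UNG excision on a quenched double-stranded DNA oligo probe, with APE1 added for strand incision and turnover, read as fluorescence at 594 nm as strands separate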
Description: Inhibition of UNG by quantifying inhibition of UNG-mediated cleavage and dissociation of quenched duplex DNA oligonucleotides, measured as fluorescence at 594 nm. To generate a functional strand incision and increase turn-over this assay is coupled to APE1.

[5] = biological target: T1, Single-strand selective monofunctional uracil DNA glycosylase (Homo sapiens) (UniProt Q53HV7);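 note: enzymatic SMUG1 assay coupled with APE1, reading fluorescence at 594 nm released when a quenched double-stranded DNA oligonucleotide substrate is cleaved and separated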
T1 sequence (whole entry): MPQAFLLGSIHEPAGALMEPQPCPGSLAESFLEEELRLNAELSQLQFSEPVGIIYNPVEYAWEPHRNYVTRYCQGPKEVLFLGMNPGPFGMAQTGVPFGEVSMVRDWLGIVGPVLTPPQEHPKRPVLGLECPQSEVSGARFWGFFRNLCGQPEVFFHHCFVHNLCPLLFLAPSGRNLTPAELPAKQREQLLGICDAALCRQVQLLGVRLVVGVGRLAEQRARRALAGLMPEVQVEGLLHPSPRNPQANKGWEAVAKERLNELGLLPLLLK
Description: Inhibition of SMUG1 by quantifying inhibition of SMUG1-mediated cleavage and dissociation of quenched duplex DNA oligonucleotides, measured as fluorescence at 594 nm. To generate a functional strand incision and increase turn-over this assay is coupled to APE1.

[6] = biological target: T2, Adenine DNA glycosylase (Homo sapiens) (UniProt Q9UIF7);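 note: human MUTYH activity read as 594 nm fluorescence from cleavage and release of a quenched DNA duplex, coupled with APE1 for strand incision, lower signal meaning inhibition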
T2 sequence (whole entry): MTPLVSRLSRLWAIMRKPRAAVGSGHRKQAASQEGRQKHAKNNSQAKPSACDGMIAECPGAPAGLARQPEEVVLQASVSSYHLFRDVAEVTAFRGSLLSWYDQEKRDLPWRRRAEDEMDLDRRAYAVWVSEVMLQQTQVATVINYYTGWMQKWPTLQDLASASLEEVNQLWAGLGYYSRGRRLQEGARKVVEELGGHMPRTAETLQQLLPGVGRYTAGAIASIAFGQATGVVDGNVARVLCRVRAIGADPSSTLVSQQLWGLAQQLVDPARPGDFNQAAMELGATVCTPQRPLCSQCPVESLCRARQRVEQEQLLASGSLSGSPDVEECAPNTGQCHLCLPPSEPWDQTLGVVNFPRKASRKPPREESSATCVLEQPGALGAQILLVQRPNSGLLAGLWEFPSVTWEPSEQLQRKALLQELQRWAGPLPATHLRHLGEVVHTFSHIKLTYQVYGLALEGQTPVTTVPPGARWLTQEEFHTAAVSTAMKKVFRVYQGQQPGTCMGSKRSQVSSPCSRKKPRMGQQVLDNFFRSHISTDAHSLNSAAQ
Description: Inhibition of MUTYH by quantifying inhibition of MUTYH-mediated cleavage and dissociation of quenched duplex DNA oligonucleotides, measured as fluorescence at 594 nm. To generate a functional strand incision and increase turn-over this assay is coupled to APE1.

[7] = biological target: T3, Endonuclease 8-like 2 (Homo sapiens) (UniProt Q969S2);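 note: fluorescence at 594 nm reports NEIL2 cutting and release of a quenched double-stranded DNA oligo substrate, reduced signal read as inhibition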
T3 sequence (whole entry): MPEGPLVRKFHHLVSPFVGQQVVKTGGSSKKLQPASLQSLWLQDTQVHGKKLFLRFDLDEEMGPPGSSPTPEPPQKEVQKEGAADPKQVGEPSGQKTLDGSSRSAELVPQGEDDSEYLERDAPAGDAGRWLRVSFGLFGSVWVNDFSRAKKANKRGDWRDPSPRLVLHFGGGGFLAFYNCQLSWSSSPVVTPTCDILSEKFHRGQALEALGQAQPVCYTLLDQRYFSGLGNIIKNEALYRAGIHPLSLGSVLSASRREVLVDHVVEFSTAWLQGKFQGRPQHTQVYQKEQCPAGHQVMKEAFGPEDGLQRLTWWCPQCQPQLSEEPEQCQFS
Description: Inhibition of NEIL2 by quantifying inhibition of NEIL2-mediated cleavage and dissociation of quenched duplex DNA oligonucleotides, measured as fluorescence at 594 nm.

[8] = biological target: G/T mismatch-specific thymine DNA glycosylase (Homo sapiens) (UniProt Q13569);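 note: human TDG cleavage of quenched duplex DNA oligonucleotides coupled to APE1, strand release read as fluorescence at 594 nm, inhibition of TDG activity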
Description: Inhibition of TDG by quantifying inhibition of TDG-mediated cleavage and dissociation of quenched duplex DNA oligonucleotides, measured as fluorescence at 594 nm. To generate a functional strand incision and increase turn-over this assay is coupled to APE1.

[9] = biological target: T4, Endonuclease III-like protein 1 (Homo sapiens) (UniProt P78549);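 note: enzyme assay tracking NTHL1 cutting and release of a quenched double-stranded DNA oligo substrate, read as fluorescence at 594 nm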
T4 sequence (whole entry): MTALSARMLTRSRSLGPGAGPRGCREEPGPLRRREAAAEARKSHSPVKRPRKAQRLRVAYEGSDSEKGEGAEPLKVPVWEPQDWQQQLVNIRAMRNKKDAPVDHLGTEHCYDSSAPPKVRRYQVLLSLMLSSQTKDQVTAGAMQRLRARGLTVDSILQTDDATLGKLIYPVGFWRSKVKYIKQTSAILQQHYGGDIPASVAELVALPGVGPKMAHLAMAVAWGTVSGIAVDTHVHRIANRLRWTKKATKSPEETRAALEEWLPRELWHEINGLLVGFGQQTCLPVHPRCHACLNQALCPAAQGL
Description: Inhibition of NTHL1 by quantifying inhibition of NTHL1-mediated cleavage and dissociation of quenched duplex DNA oligonucleotides, measured as fluorescence at 594 nm.

Chain of Uracil-DNA glycosylase (Homo sapiens) (P13051 whole entry): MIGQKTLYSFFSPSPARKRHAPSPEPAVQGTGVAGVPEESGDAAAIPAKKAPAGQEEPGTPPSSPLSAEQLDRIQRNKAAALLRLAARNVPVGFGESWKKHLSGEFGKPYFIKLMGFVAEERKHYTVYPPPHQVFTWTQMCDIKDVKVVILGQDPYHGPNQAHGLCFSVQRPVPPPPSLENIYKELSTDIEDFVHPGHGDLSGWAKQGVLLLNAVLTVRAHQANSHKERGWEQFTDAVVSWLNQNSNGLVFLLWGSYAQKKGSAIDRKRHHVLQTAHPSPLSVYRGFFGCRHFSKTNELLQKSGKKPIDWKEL
Chain of N-glycosylase/DNA lyase (Homo sapiens) (O15527 whole entry): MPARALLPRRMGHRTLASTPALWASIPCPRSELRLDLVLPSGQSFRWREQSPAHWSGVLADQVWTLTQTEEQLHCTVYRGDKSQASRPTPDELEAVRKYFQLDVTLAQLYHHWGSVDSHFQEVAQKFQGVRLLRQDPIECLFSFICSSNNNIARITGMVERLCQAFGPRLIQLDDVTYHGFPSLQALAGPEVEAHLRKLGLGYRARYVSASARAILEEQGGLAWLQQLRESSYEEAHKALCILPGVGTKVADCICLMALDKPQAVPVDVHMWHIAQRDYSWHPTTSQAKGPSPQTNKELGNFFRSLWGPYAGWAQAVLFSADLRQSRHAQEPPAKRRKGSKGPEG
Chain of DNA-3-methyladenine glycosylase (Homo sapiens) (P29372 whole entry): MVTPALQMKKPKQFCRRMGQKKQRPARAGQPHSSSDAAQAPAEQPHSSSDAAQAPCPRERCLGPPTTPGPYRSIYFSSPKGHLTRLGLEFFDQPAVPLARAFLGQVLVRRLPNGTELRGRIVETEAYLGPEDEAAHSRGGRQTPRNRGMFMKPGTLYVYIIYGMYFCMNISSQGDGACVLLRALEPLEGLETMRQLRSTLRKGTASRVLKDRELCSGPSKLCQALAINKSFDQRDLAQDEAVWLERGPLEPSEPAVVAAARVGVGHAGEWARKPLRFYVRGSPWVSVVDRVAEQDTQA
Chain of Endonuclease 8-like 1 (Homo sapiens) (Q96FI4 whole entry): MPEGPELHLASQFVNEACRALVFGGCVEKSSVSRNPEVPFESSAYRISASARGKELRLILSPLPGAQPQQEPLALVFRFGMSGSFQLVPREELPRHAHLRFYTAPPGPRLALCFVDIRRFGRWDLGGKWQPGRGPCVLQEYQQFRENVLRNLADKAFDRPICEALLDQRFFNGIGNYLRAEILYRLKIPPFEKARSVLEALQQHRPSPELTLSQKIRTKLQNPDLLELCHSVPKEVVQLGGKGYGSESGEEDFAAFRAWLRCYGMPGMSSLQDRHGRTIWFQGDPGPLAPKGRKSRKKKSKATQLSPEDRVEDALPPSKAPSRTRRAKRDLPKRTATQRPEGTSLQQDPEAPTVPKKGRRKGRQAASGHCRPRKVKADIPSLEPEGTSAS
Chain of G/T mismatch-specific thymine DNA glycosylase (Homo sapiens) (Q13569 whole entry): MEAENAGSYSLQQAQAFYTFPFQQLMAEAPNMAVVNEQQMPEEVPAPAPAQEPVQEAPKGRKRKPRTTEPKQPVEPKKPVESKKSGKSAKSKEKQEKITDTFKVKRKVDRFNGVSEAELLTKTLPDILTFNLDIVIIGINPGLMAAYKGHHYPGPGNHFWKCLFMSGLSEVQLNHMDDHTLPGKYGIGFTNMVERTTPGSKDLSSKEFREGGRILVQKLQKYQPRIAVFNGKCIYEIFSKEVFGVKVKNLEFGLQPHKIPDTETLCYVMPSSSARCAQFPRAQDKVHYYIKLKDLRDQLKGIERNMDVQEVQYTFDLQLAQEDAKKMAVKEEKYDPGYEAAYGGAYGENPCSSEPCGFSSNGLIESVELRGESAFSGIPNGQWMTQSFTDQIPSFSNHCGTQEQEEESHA

Compound | inhibition [1] [%] | inhibition [2] [%] | inhibition [3] [%] | inhibition [4] [%] | inhibition [5] [%] | inhibition [6] [%] | inhibition [7] [%] | inhibition [8] [%] | inhibition [9] [%]
NCCc1ccc(O)c(O)c1 | 2.32 | -0.746 | -1.68 | -7.47 | -4.83 | 17.9 | -3.23 | 8.49 | 21
C/N=C(/NC#N)NCCSCc1csc(NC(=N)N)n1 | -6.13 | -5.07 | -8.12 |  | -3.81 | -6.76 |  | 1.2 | -9.8
CN(C)CC[C@@H](c1ccc(Cl)cc1)c1ccccn1 | -2.28 | 0.18 | -3.11 | -8.86 |  | 11.5 | 12 | 6.86 | 6.32
O=C(Nc1cc(C(F)(F)F)cc(C(F)(F)F)c1)c1cc(Cl)ccc1O | 1.2 | 9.82 | 28.6 | -1.16 | 4.73 | -9.19 | -3.41 |  | 6.35
O=C(Nc1cccc(C(F)(F)F)c1)c1cc(Cl)ccc1O | -4.58 | 23.5 | -6.43 | -2.86 | 0.608 | 0.595 | -5.45 | 4.24 | 5.52
CCCCCCCC/C=C\CCCCCCCC(N)=O | 12.4 | 17.3 | 4.44 | -8.52 | -2.07 | 15.9 | 2.51 | 12.1 | 2.66
CC(C)c1ccc(CC(=O)N[C@H](C)c2ccc(OCC(F)(F)F)cn2)cc1 | 3.42 | 9.35 | -4.46 | -0.689 | 4.45 | -5.06 | -3.66 | -9.7 | 8
H-RPPGFSPFR-OH | 4.01 | 15.2 | -0.678 | 2.31 | 5.92 | 29 | -1.37 | 26.9 | 1.39
O=C(O)C1CN(Cc2ccc(-c3nc4cc(Cc5ccccc5F)ccc4s3)c(F)c2)C1 | -0.945 | -8.77 | -3.25 |  |  | -0.363 | -3.48 | -3.37 | 11.4
CC(C)NCC(O)c1ccc(N)c(C#N)c1 (stereo not drawn) | -4.21 | 0.373 | -2.67 |  | -9.04 | 4.24 | -8.72 | -4.14 | 12.9
CC[S+]([O-])c1nc(-c2cccc(OCc3ccccc3)c2)cc(C(F)(F)F)n1 (stereo not drawn) | 5.43 | -6.11 | 6.41 | -7.73 | 4.67 | -4.2 | 10.8 | 4.54 | -3.94
COC(c1ccccc1)(c1ccccc1)[C@H](Oc1nc(C)cc(C)n1)C(=O)O | 9.14 | 4.85 | 1.14 | -5.94 | -3.28 | 23.3 | 10.8 | 14.5 | 6.32
CC[C@H](NC(=O)c1c(C)c(-c2ccccc2)nc2ccccc12)c1ccccc1 | -0.204 | 4.04 | -1.61 | -6.75 | -0.0333 | 0.0213 | -1.98 | -2.42 | 9.25
CCC(=O)OCC(=O)[C@@]1(OC(=O)CC)[C@@H](C)C[C@H]2[C@@H]3CCC4=CC(=O)C=C[C@]4(C)[C@@]3(Cl)[C@@H](O)C[C@@]21C | 7.21 | 2.96 | -5.93 |  |  | 11.3 | 7 | -4.42 | 22.4
c1ccc2c(c1)CCC[C@H]2Nc1nc2ccccc2[nH]1 | 4.46 | 9.2 | 1.89 | -4.72 | -5.61 | 2.96 | 3.47 | 8.8 | 4.7
CN(C(=O)/C=C/c1ccoc1)[C@@H]1CC[C@@]2(O)[C@H]3Cc4ccc(O)c5c4[C@@]2(CCN3CC2CC2)[C@H]1O5 | 14.2 | 5.81 | -1.76 | -6.84 | -7.79 | 8.72 | 1.76 | 13.5 | 1.92
NC(=O)c1ccc(CNC(=O)NC[C@H]2CN(Cc3ccc(Cl)c(Cl)c3)CCO2)cc1 | 7.06 | -0.36 | -7.25 |  |  | 5.52 | 16.2 | 19.2 | 15.8
Cc1ccc(S(=O)(=O)Nc2ccc(-n3nc(C(F)(F)F)cc3C(F)(F)F)cc2)cc1 | 3.57 | 20 | 21.7 | -1.93 | 19.1 | -4.85 | 5 |  | 16.2
C[C@@H](OC[C@@]1(c2ccccc2)CC[C@]2(CCC(=O)N2)CN1)c1cc(C(F)(F)F)cc(C(F)(F)F)c1 | -1.98 | -7.57 | -0.784 | -7.13 | -1.58 | 10.9 | 6.75 | 9.1 | -6.14
Cc1ccccc1-c1cc(N2CCN(C)CC2)ncc1N(C)C(=O)C(C)(C)c1cc(C(F)(F)F)cc(C(F)(F)F)c1 | 0.537 | -7.15 | -7.29 |  |  | -1.13 | 1.76 | -5.37 | 21.7
COc1ccc(C2(O)OC(=O)C(c3ccc4c(c3)OCO4)=C2Cc2cc(OC)c(OC)c(OC)c2)cc1 (stereo not drawn) | -4.95 | 13.2 | -9.68 | -1.01 |  | 22.7 |  | 8.23 | 15.1
CC(C)(C(=O)O)c1ccc(C(O)CCCN2CCC(C(O)(c3ccccc3)c3ccccc3)CC2)cc1 (stereo not drawn) | -7.32 | -4.6 | -9.14 | -8.82 | -3.57 | -0.107 | 8 | 8.16 | 2.66
CNc1nc(Nc2ccccc2)nc(OC(C(F)(F)F)C(F)(F)F)n1 | 2.83 | -9.6 | -3.77 | 1.86 | 2.08 | -4.15 | 1.69 | 4.54 | 19.6
O=c1ccn([C@@H]2O[C@H](COP(=O)(O)OP(=O)(O)OP(=O)(O)OP(=O)(O)OC[C@H]3O[C@@H](n4ccc(=O)[nH]c4=O)[C@H](O)[C@@H]3O)[C@@H](O)[C@H]2O)c(=O)[nH]1 | 3.21 | 0.18 | -1.8 |  |  | -6.25 | -3.48 | 3.7 | 20.2

Reference: ChEMBL document CHEMBL5665443, “Enzyme Inhibitor Single Concentration assay results for EUbOPEN Chemogenomics Library” (2024)
